Data set [1] can be described thus: Aqueous solubility of the compound at pH 7.4. Type of data set: physicochemical. The note with it: buffer.
The species named for another data set is Rattus norvegicus. As to the kind of experiment: Hepatic blood flow in rat. The format is ADME, organism-based, Liver.
The species entered for another data set is Homo sapiens. The data set is described as follows: Hepatic blood flow in human. The format is ADME, organism-based, Liver.
Data set [2] is described as follows: Cmax in Wistar rat at 10 umol/kg, po. The format is ADME, organism-based, Wister. The conditions noted are these: in vivo. On the set-up: dose 10 umol/kg, route oral.
Data set [3] can be described thus: AUC (0 to infinity) in Wistar rat at 10 umol/kg, po. On the set-up: dose 10 umol/kg, route oral, time infinity. The format is ADME, organism-based, Wister. The note with it: plasma.
A short description of data set [4]: Volume of distribution at steady state in Wistar rat at 1 umol/kg, iv. Type of data set: ADME, organism-based, Wister. The conditions noted are these: in vivo, read-out: Vdss.
A short description of data set [5]: Oral bioavailability in Wistar rat at 10 umol/kg. The format is ADME, organism-based, Wister. The conditions noted are these: in vivo.

In brackets after ≈: the same amount, converted by molar mass.

The term solubility denotes how much of the substance goes into solution per volume. Read a low solubility as little dissolved substance. In turn, `CC(C)(C)c1cc(NC(=O)N2CCCN(C(=O)C3CCOCC3)CC2)on1` yielded a solubility in data set [1] above 37 µg/mL. The QH in the data set filed under Rattus norvegicus was below 23%; in the data set filed under Homo sapiens, below 24%.

As usually defined, the Cmax is the highest concentration seen after dosing. By AUC(0-inf) is commonly meant the area under the concentration-time curve extrapolated to infinity. By bioavailability is commonly meant dose-corrected exposure relative to a reference, in per cent. Turning to `CC(C)(C)c1cc(NC(=O)N2CCCN(C(=O)C3CCOCC3)CC2)no1`, in data set [2], the peak concentration (Cmax) is 1760 ng/mL. The same compound yielded a solubility in data set [1] above 37 µg/mL. Moreover, in data set [3], the AUC(0-inf) turned out to be 1.38 µM·h. Besides, the Vd in data set [4] was determined as 0.87 L/kg. The QH in the data set listed under Rattus norvegicus is reported as 35%; in the data set listed under Homo sapiens, below 24%. In data set [5], this compound had a bioavailability of 28%.

In data set [1], `CCCCc1ccc(NC(=O)N2CCCN(C(=O)CCC3CCCC3)CC2)cc1` came in with a solubility of 3 µg/mL (≈ 7.51 µM).

As to `CC(C)(C)c1cc(NC(=O)N2CCCN(C(=O)CN3CCS(=O)(=O)CC3)CC2)no1`, the solubility in data set [1] was above 96 µg/mL. Further, the QH in the data set listed under Rattus norvegicus is 27%; in the data set listed under Homo sapiens, 50%.

`CC(C)(C)c1cc(NC(=O)N2CCCN(C(=O)N3CCS(=O)(=O)CC3)CC2)no1`: the concentration in solution in data set [1] (solubility) came to 18 µg/mL (≈ 42.1 µM). The QH in the data set listed under Rattus norvegicus is given as 42%; in the data set listed under Homo sapiens, below 24%.

(Values after ChEMBL document CHEMBL1759893, “1,4-Diazepane compounds as potent and selective CB2 agonists: optimization of metabolic stability” (Bioorg Med Chem Lett, 2011).)
